Patent US11884647B2, “Compounds and methods for targeting pathogenic blood vessels” (THE REGENTS OF THE UNIVERSITY OF CALIFORNIA, priority 2019, dated 2024)

Key:
[1] = tested on: tumor endothelial cells (CT26.CL25 colon cancer tumor); test: Colon CT26 ex vivo model of tumor angiogenesis; format: cell-based; settings: Mus musculus, CT26, 48 h, read-out: Cell death
Protocol: This example describes a procedure to prepare a primary tumor angiogenesis model for assessing the efficacy of anti-cancer candidate agents.
1. The day before the experiment, spray all necessary tools with 70% ethanol and sterilize them under UV light overnight, including blade, dissecting and micro-dissecting scissors and […]. Place 24-well dishes at 4° C. to pre-chill plates and thaw Matrigel 24 hours before tumor dissection.
2. Spray 70% ethanol on working bench. Prepare two sterile petri dishes with 10 mL sterile PBS. Steps 3 and 4 are for mouse tumor models. For fresh human tumor, directly go to step 5.
3. Euthanize the tumor-bearing mice. Spray 70% ethanol on the mouse and remove the tumor using sterilized dissecting tools (avoid the fur). Rinse the tumor in petri dish with sterile PBS to remove ethanol and fur. Transfer the tumor to a new petri dish with PBS for dissection. Place the dish on ice.
4. Using pre-chilled sterile pipet tips to seed regular Matrigel in 24 well plates on ice. Matrigel (30 μL) is dropped in the middle of each well without touching the edge of the well (avoid introducing bubbles if possible).
5. Cut the tumor in halves using the sterile blade. Identify and isolate healthy tumor tissue that is not necrotic and is within the tumor capsule. Cut the healthy tumor tissue into small pieces. For instance, a suitable size for the tumor tissue is 0.5 mm (H)×0.5 mm (L)×0.3 mm (D) with a total volume of 0.075 mm^3.
6. Gently transfer and embed each tumor piece in the Matrigel drop in the 24-well plate. Place the embedded piece in the bottom and middle of each Matrigel drop. Keep the plate on ice all the time.
7. After seeding the tumor pieces, plates are incubated in a 37° C. cell culture incubator without medium for 10 minutes in order for the Matrigel to solidify.
8. Endothelial Growth Medium (0.5 mL) is added to each well and incubated at 37° C. with 5% CO2. Wait until the new endothelial cells have grown out of the tumor or are larger than 3 mm in diameter until treatment. This usually takes 4 days for the LL2 Lewis lung cancer model and 7 days for the CT26 colon cancer model. For human tumor models, the growth time is typically 2-3 weeks, depending on the tumor type. Media is changed every 4 days during prolonged culture. Typically, when the tumor tissue grows to 2 mm in diameter, it is good for drug testing. A size of about 3 mm in diameter can make visualization easier.
9. When the assay is ready to be analyzed for cell death (e.g., 48 hours after drug addition), prepare the dye mixture by mixing 6 μL of green dye to stain live cells (5 mg/mL Fluorescein diacetate or FDA in DMSO) with 30 μL of red dye (2.5 mg/mL Propidium iodide or PI in PBS) to stain dead cells in an Eppendorf tube. The FDA dye needs to be stored frozen in a −20° C. freezer because it has a labile ester bond.
10. Add 1 μL of the dye mixture to each well of the 24-well dish. It is usually performed one 24-well dish at a time given the amount of time needed to take pictures (the green dye is not as stable in the cells in the long term).
11. Gently rock the dish a few times to mix the dye with the media in the wells and incubate the dish at 37° C. for 10 min (too long incubation can make the green signal too intense).
12. Wash each well with 0.5 mL of sterile PBS and then add 0.5 mL of phenol red free SFM to each well. Alternatively 0.5 mL of regular Endothelial Cell Growth Media can be added to each well if this well needs to be continuously maintained after the experiment.
13. Look through all wells on an inverted microscope using the 2× objective lens to observe morphological changes.
14. Taking pictures in the red and green channels would allow not only the recording of the result but also more accurate quantitation of the result. To take pictures for all the wells, first pick a well that has robust red and green signals. […]

[2] = tested on: tumor endothelial cells (LL/2 lung cancer tumor); test: Lung LL2 ex vivo model of tumor angiogenesis; format: cell-based, mouse; settings: for cytotoxicity at 40 µM / cytotoxicity at 20 µM: Mus musculus, Endothelial cell, 48 h, read-out: Cell death
Procedure, shortened: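 Mouse LL2 tumor fragments (~0.5×0.5×0.3 mm) embedded in Matrigel and grown in endothelial growth medium at 37° C until endothelial outgrowth (about 4 days) before drug treatment. About 48 h after drug addition, stained 10 min with fluorescein diacetate/propidium iodide; live (green) and dead (red) cells imaged at 2× with fixed channel settings.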

| Structure (SMILES) | cytotoxicity at 40 µM [1] | cytotoxicity at 40 µM [2] | other results |
| --- | --- | --- | --- |
| CCOC(=O)c1ccc2ncc(S(=O)(=O)c3ccc(CC)cc3)c(N3CCC(O)CC3)c2c1 [compound 62, ethyl 3-((4-ethylphenyl)sulfonyl)-4-(4-hydroxypiperidin-1-yl)quinoline-6-carboxylate] | 70% | 30% | – |
| CCOC(=O)c1ccc2ncc(S(=O)(=O)c3ccc(CC)cc3)c(N3CCCN(C)CC3)c2c1 [compound 63, ethyl 3-((4-ethylphenyl)sulfonyl)-4-(4-methyl-1,4-diazepan-1-yl)quinoline-6-carboxylate] | 70% | 50% | – |
| CCOC(=O)c1ccc2ncc(S(=O)(=O)c3ccc(CC)cc3)c(N3CCC(N4CCCCC4)CC3)c2c1 [compound 64, ethyl 4-([1,4′-bipiperidin]-1′-yl)-3-((4-ethylphenyl)sulfonyl)quinoline-6-carboxylate] | 100% | 100% | – |
| CCc1ccc(S(=O)(=O)c2cnc3ccc(C(=O)O)cc3c2N2CCC(O)CC2)cc1 [compound 65, 3-((4-ethylphenyl)sulfonyl)-4-(4-hydroxypiperidin-1-yl)quinoline-6-carboxylic acid] | 0% | 10% | – |
| CCc1ccc(S(=O)(=O)c2cnc3ccc(C(=O)O)cc3c2N2CCCN(C)CC2)cc1 [compound 66, 3-((4-ethylphenyl)sulfonyl)-4-(4-methyl-1,4-diazepan-1-yl)quinoline-6-carboxylic acid] | 0% | 10% | – |
| CCc1ccc(S(=O)(=O)c2cnc3ccc(C(=O)O)cc3c2N2CCC(N3CCCCC3)CC2)cc1 [compound 67, 4-([1,4′-bipiperidin]-1′-yl)-3-((4-ethylphenyl)sulfonyl)quinoline-6-carboxylic acid] | 0% | 10% | – |
| CCN(CC)c1c(S(=O)(=O)c2ccc(OC)c(OC)c2)cnc2ccc(OC(F)(F)F)cc12 [compound 68, 3-((3,4-dimethoxyphenyl)sulfonyl)-N,N-diethyl-6-(trifluoromethoxy)quinolin-4-amine] | 50% | 80% | – |
| COc1ccc(S(=O)(=O)c2cnc3ccc(OC(F)(F)F)cc3c2NCCO)cc1OC [compound 69, 2-((3-((3,4-dimethoxyphenyl)sulfonyl)-6-(trifluoromethoxy)quinolin-4-yl)amino)ethan-1-ol] | 0% | – | 48 hrs (morphology observations after 48 hours) ([2]; Lung LL2 ex vivo, Conc. 40 μm, 48 hrs): 0; Cell death ([2]; Lung LL2 ex vivo, Conc. 40 μm, drug treatment two days): 20% |
| COc1ccc(S(=O)(=O)c2cnc3ccc(OC(F)(F)F)cc3c2N2CCCC(O)C2)cc1OC (stereo not shown) [compound 70, 1-(3-((3,4-dimethoxyphenyl)sulfonyl)-6-(trifluoromethoxy)quinolin-4-yl)piperidin-3-ol] | 10% | 40% | – |
| CCCN(CCC)c1c(S(=O)(=O)c2ccc(OC)c(OC)c2)cnc2ccc(OC(F)(F)F)cc12 [compound 71, 3-((3,4-dimethoxyphenyl)sulfonyl)-N,N-dipropyl-6-(trifluoromethoxy)quinolin-4-amine] | 0% | 10% | – |
| COc1ccc(S(=O)(=O)c2cnc3ccc(OC(F)(F)F)cc3c2N(CCO)CCO)cc1OC [compound 72, 2,2′-((3-((3,4-dimethoxyphenyl)sulfonyl)-6-(trifluoromethoxy)quinolin-4-yl)azanediyl)bis(ethan-1-ol)] | 0% | 20% | – |
| CCCCN(CCCC)c1c(S(=O)(=O)c2ccc(OC)c(OC)c2)cnc2ccc(OC(F)(F)F)cc12 [compound 74, N,N-dibutyl-3-((3,4-dimethoxyphenyl)sulfonyl)-6-(trifluoromethoxy)quinolin-4-amine] | 100% | 60% | – |
| CCc1ccc(S(=O)(=O)c2cnc3ccc([N+](=O)[O-])cc3c2N2CCC(O)CC2)cc1 [compound 75, 1-(3-((4-ethylphenyl)sulfonyl)-6-nitroquinolin-4-yl)piperidin-4-ol] | 0% | 80% | – |
| CCc1ccc(S(=O)(=O)c2cnc3ccc([N+](=O)[O-])cc3c2N2CCCN(C)CC2)cc1 [compound 76, 3-((4-ethylphenyl)sulfonyl)-4-(4-methyl-1,4-diazepan-1-yl)-6-nitroquinoline] | 100% | 20% | – |
| CCc1ccc(S(=O)(=O)c2cnc3ccc([N+](=O)[O-])cc3c2N2CCC(N3CCCCC3)CC2)cc1 [compound 77, 4-([1,4′-bipiperidin]-1′-yl)-3-((4-ethylphenyl)sulfonyl)-6-nitroquinoline] | 40% | 80% | – |
| CCc1ccc(S(=O)(=O)c2cnc3ccc([N+](=O)[O-])cc3c2N(CC)CC)cc1 [compound 78, N,N-diethyl-3-((4-ethylphenyl)sulfonyl)-6-nitroquinolin-4-amine] | 0% | 40% | – |
| CCc1ccc(S(=O)(=O)c2cnc3ccc(OC)cc3c2-n2cncn2)cc1 [compound 79, 3-((4-ethylphenyl)sulfonyl)-6-methoxy-4-(1H-1,2,4-triazol-1-yl)quinoline] | – | – | cytotoxicity at 10 µM [1]: 100%; cytotoxicity at 20 µM [2]: 20% |
| CCOC(=O)c1ccc2ncc(S(=O)(=O)c3ccc(CC)cc3)c(-n3cncn3)c2c1 [compound 80, ethyl 3-((4-ethylphenyl)sulfonyl)-4-(1H-1,2,4-triazol-1-yl)quinoline-6-carboxylate] | – | – | cytotoxicity at 10 µM [1]: 100%; cytotoxicity at 20 µM [2]: 100% |
| CCc1ccc(S(=O)(=O)c2cnc3ccc(OC(F)(F)F)cc3c2N(CC)CC)cc1 [compound 81, N,N-diethyl-3-((4-ethylphenyl)sulfonyl)-6-(trifluoromethoxy)quinolin-4-amine] | 0% | 0% | – |
| CCc1ccc(S(=O)(=O)c2cnc3ccc(OC(F)(F)F)cc3c2N2CCCC(O)C2)cc1 (stereo not shown) [compound 82, 1-(3-((4-ethylphenyl)sulfonyl)-6-(trifluoromethoxy)quinolin-4-yl)piperidin-3-ol] | 10% | 60% | – |
| CCOC(=O)c1ccc2ncc(S(=O)(=O)c3ccc(CC)cc3)c(NN3CCN(C)CC3)c2c1 [compound 84, ethyl 3-((4-ethylphenyl)sulfonyl)-4-((4-methylpiperazin-1-yl)amino)quinoline-6-carboxylate] | 100% | 100% | – |
| COc1ccc(S(=O)(=O)c2cnc3ccc(OC(F)(F)F)cc3c2NN2CCN(C)CC2)cc1 [compound 85, 3-((4-methoxyphenyl)sulfonyl)-N-(4-methylpiperazin-1-yl)-6-(trifluoromethoxy)quinolin-4-amine] | 50% | 80% | – |
| COc1ccc(S(=O)(=O)c2cnc3ccc(OC(F)(F)F)cc3c2-n2cncn2)cc1 [compound 86, 3-((4-methoxyphenyl)sulfonyl)-4-(1H-1,2,4-triazol-1-yl)-6-(trifluoromethoxy)quinoline] | – | – | cytotoxicity at 10 µM [1]: 100%; cytotoxicity at 20 µM [2]: 100% |
| CCCCN(CCCC)c1c(S(=O)(=O)c2ccc(CC)cc2)cnc2ccc(OC(F)(F)F)cc12 [compound 87, N,N-dibutyl-3-((4-ethylphenyl)sulfonyl)-6-(trifluoromethoxy)quinolin-4-amine] | 0% | 0% | – |
